# Assay results as given in patent US9409893B2, “Heteroaryl derivatives and uses thereof” (Jacobus Pharmaceutical Company, Inc., priority 2012, dated 2016).
# Marks after values point to notes of the source that are not given here.
# Experiments:
# P. falciparum strain D6 = assay: [3H]-hypoxanthine growth inhibition assay, P. falciparum D6; format: cell-based; details: Plasmodium falciparum; P. falciparum D6 (sensitive to chloroquine and pyrimethamine), [3H]-hypoxanthine incorporation; read-out: D6 IC50
# Outline: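 Parasites cultured in human O Rh+ RBCs in RPMI-1640-LPLF (low PABA and folic acid) with 10% human plasma, pH 6.9, 37° C, 5% O2/5% CO2/90% N2. Sorbitol-synchronised ring-stage cultures started at 1% parasitaemia; growth measured as [3H]-hypoxanthine incorporation in hypoxanthine-free medium. Compound stocks 1 mM in DMSO.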
# [1] = tested on: Plasmodium berghei (KBG-173 strain); assay: Plasmodium berghei assay in vivo (modified Thompson Test) in CD-1 mice; details: bid on days 3, 4 and 5; for Average Days Survival: 31 day experiment
# Protocol: In vivo antimalarial activity was tested in male or female Charles River CD-1 mice that were 4-5 weeks old and weighed 20-25 g They were housed in groups of 3 or 4 in standard plastic cages with wire tops, Bed-o-Cob® bedding, 12 hr/day of light, and maintained at 75° F. They were fed a standard Ralston Purina mouse chow and the cages and bottles were changed twice a week. Test compounds were ground in a mortar and pestle and diluted with enough vehicle to give a volume of 10 mL/kg of mouse weight. The oral doses were prepared in 0.5% hydroxyethylcellulose (Union Carbide Corp. WP 4400)/0.1% Tween-80 (Fisher Scientific T164-500). The amount of drug was calculated on the free base weight. The mice were infected intraperitoneally on day 0 with 5×10^4 erythrocytes parasitized with Plasmodium berghei (KBG-173 strain) from a donor mouse having a parasitemia between 5-10%. On days 3, 4 and 5 the test compounds were administered bid, spaced 6 hr apart, by oral gavage to the mice. Activity was measured by survival, with full activity defined as all animals living at day 31. Partial activity is defined as days of increased survival versus the infected non-treated controls. This in vivo model is a modification of the Thompson Test. For further description see Ager, A. L, Jr. Rodent Malaria Models. In Handbook of Experimental Pharmacology: Antimalarial Drugs. 1. 68/1; Peters, W., Richards, W. H. G., Eds.: Springer-Verlag: Berlin, 1984, pp. 231-33.
# [2] = Plasmodium berghei, 744 h, 4 mg/kg/day oral, CD-1 mice infected with P. berghei, read-out: Number of mice alive at day 31 (converted)
# [3] = Plasmodium berghei, 744 h, 8 mg/kg/day oral, CD-1 mice infected with P. berghei, read-out: Number of mice alive at day 31 (converted)
# [4] = Plasmodium berghei, 744 h, 16 mg/kg/day oral, CD-1 mice infected with P. berghei, read-out: Number of mice alive at day 31 (converted)
# [5] = Plasmodium berghei, 744 h, 32 mg/kg/day oral, CD-1 mice infected with P. berghei, read-out: Number of mice alive at day 31 (converted)
# [6] = Plasmodium berghei, 744 h, 64 mg/kg/day oral, CD-1 mice infected with P. berghei, read-out: Number of mice alive at day 31 (converted)
SMILES,IC50 (P. falciparum strain D6) [nM],Average Days Survival ([1]; 2 mg/kg/day oral) [days],Average Days Survival ([1]; 4 mg/kg/day oral),Average Days Survival ([1]; 8 mg/kg/day oral),Average Days Survival ([1]; 16 mg/kg/day oral),Average Days Survival ([1]; 32 mg/kg/day oral),Average Days Survival ([1]; 64 mg/kg/day oral),"responders at 2 mg/kg ([1]; Plasmodium berghei, 744 h, 2 mg/kg/day oral, CD-1 mice infected with P. berghei, read-out: Number of mice alive at day 31 (converted)) [%]","responders at 4 mg/kg [1, 2] [%]","responders at 8 mg/kg [1, 3] [%]","responders at 16 mg/kg [1, 4] [%]","responders at 32 mg/kg [1, 5] [%]","responders at 64 mg/kg [1, 6] [%]"
"CC(C)(C)NCc1cc(C(C)(C)C)cc(-c2ccc(C(F)(F)F)nc2)c1O.Cl [Example 1, 4-(tert-Butyl)-2-((tert-butylamino)methyl)-6-(6-(trifluoromethyl)pyridin-3-yl)phenol hydrochloride]",13,>27,>31* days,>31* days,>31* days,>31* days,>31* days,71.4,100,100,100,100,100
"CC(C)(C)NCc1cc(C(C)(C)C)cc(-c2cnc(C(F)(F)F)c(F)c2)c1O.Cl [Example 34, 4-(tert-Butyl)-2-((tert-butylamino)methyl)-6-(5-fluoro-6-(trifluoromethyl)pyridin-3-yl)phenol hydrochloride]",8,,>28 days,>31* days,>31* days,>31* days,>31* days,,85.7,100,100,100,100
"CC(C)(C)NCc1cc(C(C)(C)C)cc(-c2cnc(C(F)(F)F)nc2)c1O.Cl [Example 33, 4-(tert-Butyl)-2-((tert-butylamino)methyl)-6-(2-(trifluoromethyl)pyrimidin-5-yl)phenol hydrochloride]",10,,>30 days,>31* days,>31* days,>31* days,>31* days,,85.7,100,100,100,100
